From ChEMBL document CHEMBL1201862, “PubChem BioAssay data set” (2004)
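Each compound was tested at five concentrations against cells in 96-well plates for 48 hours. The concentration for 50% growth inhibition is given as GI50.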 Activity calls are given as the source filed them. Rule as the data show it: active = GI50 up to about 1.1 µM and inactive = higher.

Tests used:
Test in all cases: NCI tumour cell line growth inhibition, 48 h
[1] = system: 786-0
[2] = system: A498
[3] = system: A549
[4] = system: ACHN
[5] = system: CCRF-CEM
[6] = system: COLO 205
[7] = system: DLD-1
[8] = system: DMS-114
[9] = system: DMS-273
[10] = system: EKVX
[11] = system: HCC 2998
[12] = system: HCT-116
[13] = system: HCT-15
[14] = system: HL-60
[15] = system: HOP-18
[16] = system: HOP-62
[17] = system: HOP-92
[18] = system: HT-29
[19] = system: IGROV-1
[20] = system: K562
[21] = system: KM-20L2
[22] = system: LOX IMVI
[23] = system: LXFL 529
[24] = system: M14
[25] = system: M19-MEL
[26] = system: MOLT-4
[27] = system: Malme-3M
[28] = system: NCI-H226
[29] = system: NCI-H23
[30] = system: NCI-H460
[31] = system: OVCAR-3
[32] = system: OVCAR-4
[33] = system: OVCAR-5
[34] = system: OVCAR-8
[35] = system: RPMI-8226
[36] = system: RXF 393
[37] = system: RXF 631
[38] = system: SF-268
[39] = system: SF-295
[40] = system: SF-539
[41] = system: SK-MEL-28
[42] = system: SK-MEL-2
[43] = system: SK-MEL-5
[44] = system: SK-OV-3
[45] = system: SN12C
[46] = system: SNB-19
[47] = system: SNB-75
[48] = system: SNB-78
[49] = system: SR
[50] = system: SW-620
[51] = system: TK-10
[52] = system: U-251
[53] = system: UACC-257
[54] = system: UACC-62
[55] = system: UO-31
[56] = system: XF498
[57] = system: CAKI-1
[58] = system: KM12
[59] = system: NCI-H522

Measured: GI50

CN(C)CCN(C)C(=O)c1cccc2cccc(C(=O)O)c12
inactive: [1] > 100 µM | [2] > 100 µM | [3] > 100 µM | [4] > 100 µM | [5] > 100 µM | [6] > 100 µM | [7] > 100 µM | [8] > 100 µM | [9] > 100 µM | [10] > 100 µM | [11] > 100 µM | [12] > 100 µM | [14] > 100 µM | [15] > 100 µM | [16] > 100 µM | [17] > 100 µM | [18] > 100 µM | [19] > 100 µM | [20] > 100 µM | [21] > 100 µM | [22] > 100 µM | [23] > 100 µM | [24] > 100 µM | [25] > 100 µM | [26] > 100 µM | [27] > 100 µM | [28] > 100 µM | [29] > 100 µM | [30] > 100 µM | [31] > 100 µM | [32] > 100 µM | [33] > 100 µM | [34] > 100 µM | [35] > 100 µM | [36] > 100 µM | [37] > 100 µM | [38] > 100 µM | [39] > 100 µM | [40] > 100 µM | [41] > 100 µM | [43] > 100 µM | [44] > 100 µM | [45] > 100 µM | [46] > 100 µM | [47] > 100 µM | [48] > 100 µM | [49] > 100 µM | [50] > 100 µM | [51] > 100 µM | [52] > 100 µM | [53] > 100 µM | [54] > 100 µM | [55] > 100 µM | [56] > 100 µM
active: [42] 0.723 µM
> 100 µM: [13]

COc1ccccc1NC(=O)C1=C(C)NC(C)=C(C(=O)Nc2ccccc2OC)C1c1ccc(C2C(C(=O)Nc3ccccc3OC)=C(C)NC(C)=C2C(=O)Nc2ccccc2OC)cc1
active: [5] 0.813 µM
inactive: [1] 1.78 µM | [2] 6.12 µM | [3] > 27.8 µM | [4] 2.88 µM | [57] 3.13 µM | [6] 3.33 µM | [7] 1.22 µM | [8] 3.52 µM | [9] 2.32 µM | [10] 2.54 µM | [11] 1.95 µM | [12] 1.3 µM | [14] 1.46 µM | [15] 18 µM | [16] 6.35 µM | [17] 3.29 µM | [18] 1.71 µM | [19] 1.99 µM | [20] 2.18 µM | [21] 1.71 µM | [58] 1.64 µM | [22] 1.29 µM | [23] 1.89 µM | [24] 1.61 µM | [25] 3.15 µM | [26] 1.19 µM | [27] 2.51 µM | [28] 3.52 µM | [29] 2.39 µM | [30] 2.78 µM | [59] 1.8 µM | [31] 2.29 µM | [32] 3.94 µM | [33] 3.22 µM | [34] 2.53 µM | [35] 2.43 µM | [36] 2.38 µM | [37] 3.46 µM | [38] 2.82 µM | [39] 1.53 µM | [40] 1.68 µM | [41] 2.44 µM | [42] 2.08 µM | [43] 2.84 µM | [44] 13 µM | [45] 1.79 µM | [46] 3.89 µM | [47] 10.2 µM | [48] 4.16 µM | [49] 1.53 µM | [50] 1.86 µM | [51] 11.5 µM | [52] 2.52 µM | [53] 2.33 µM | [54] 1.68 µM | [55] 4.14 µM | [56] 2.21 µM
2.72 µM: [13]
